# Test results taken from ChEMBL document CHEMBL2203078, “Identification of amides as carboxylic Acid surrogates for quinolizidinone-based m1 positive allosteric modulators” (ACS Med Chem Lett, 2012).
# pIC50: −log10 of the molar value. Active and inactive are the calls of the source. The rule behind the calls is not given here.
# What was measured:
# [1] = Protein binding in rat plasma; format: ADME, cell-free; conditions: read-out: PPB (converted)
# [2] = Protein binding in human plasma; format: ADME, cell-free; conditions: read-out: PPB (converted)
# [3] = Passive permeability across MDCK cells; format: ADME, cell-based, Canis lupus familiaris; conditions: dog
# [4] = target: T1, Muscarinic acetylcholine receptor M4 (Homo sapiens) (UniProt P08173); assay: Activity at muscarinic M4 receptor expressing in CHONFAT cells assessed as potentiation of acetylcholine-induced calcium mobilization preincubated for 4 mins and measured 4 mins after acetylcholine stimulation by FLIPR assay; format: functional, cell-based
# T1 sequence (whole entry): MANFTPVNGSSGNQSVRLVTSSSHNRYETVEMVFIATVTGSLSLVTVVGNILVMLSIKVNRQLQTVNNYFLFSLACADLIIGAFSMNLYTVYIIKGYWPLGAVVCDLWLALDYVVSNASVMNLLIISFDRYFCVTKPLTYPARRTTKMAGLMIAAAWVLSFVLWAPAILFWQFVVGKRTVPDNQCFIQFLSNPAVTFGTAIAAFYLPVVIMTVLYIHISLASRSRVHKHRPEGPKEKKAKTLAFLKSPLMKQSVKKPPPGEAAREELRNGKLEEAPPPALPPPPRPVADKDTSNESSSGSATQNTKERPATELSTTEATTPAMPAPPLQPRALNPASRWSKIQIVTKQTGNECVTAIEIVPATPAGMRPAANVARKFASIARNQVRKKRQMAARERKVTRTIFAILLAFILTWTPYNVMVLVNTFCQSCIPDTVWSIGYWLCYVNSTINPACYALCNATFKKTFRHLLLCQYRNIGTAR
# [5] = target: Muscarinic acetylcholine receptor M3 (Homo sapiens) (UniProt P20309); assay: Activity at muscarinic M3 receptor expressing in CHONFAT cells assessed as potentiation of acetylcholine-induced calcium mobilization preincubated for 4 mins and measured 4 mins after acetylcholine stimulation by FLIPR assay; format: functional, cell-based
# [6] = target: T2, Muscarinic acetylcholine receptor M2 (Homo sapiens) (UniProt P08172); assay: Activity at muscarinic M2 receptor expressing in CHONFAT cells assessed as potentiation of acetylcholine-induced calcium mobilization preincubated for 4 mins and measured 4 mins after acetylcholine stimulation by FLIPR assay; format: functional, cell-based
# T2 sequence (whole entry): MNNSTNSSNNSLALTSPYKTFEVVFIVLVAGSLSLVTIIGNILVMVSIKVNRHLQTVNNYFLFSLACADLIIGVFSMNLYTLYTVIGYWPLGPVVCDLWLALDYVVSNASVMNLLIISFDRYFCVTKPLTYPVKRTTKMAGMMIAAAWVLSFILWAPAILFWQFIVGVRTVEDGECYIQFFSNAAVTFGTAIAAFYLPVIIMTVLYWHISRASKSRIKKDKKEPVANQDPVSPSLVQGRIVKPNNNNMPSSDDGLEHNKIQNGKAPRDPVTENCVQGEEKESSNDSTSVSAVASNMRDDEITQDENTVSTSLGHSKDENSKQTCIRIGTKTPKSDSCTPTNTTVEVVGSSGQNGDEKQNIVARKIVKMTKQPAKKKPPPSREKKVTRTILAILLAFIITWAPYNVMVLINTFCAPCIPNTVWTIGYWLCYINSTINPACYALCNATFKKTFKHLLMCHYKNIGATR
# [7] = target: T3, Muscarinic acetylcholine receptor M1 (Homo sapiens) (UniProt P11229); assay: Positive allosteric modulation of human muscarinic M1 receptor expressing in CHONFAT cells assessed as potentiation of acetylcholine-induced calcium mobilization preincubated for 4 mins and measured 4 mins after acetylcholine stimulation by FLIPR assay; format: functional, cell-based
# T3 sequence (whole entry): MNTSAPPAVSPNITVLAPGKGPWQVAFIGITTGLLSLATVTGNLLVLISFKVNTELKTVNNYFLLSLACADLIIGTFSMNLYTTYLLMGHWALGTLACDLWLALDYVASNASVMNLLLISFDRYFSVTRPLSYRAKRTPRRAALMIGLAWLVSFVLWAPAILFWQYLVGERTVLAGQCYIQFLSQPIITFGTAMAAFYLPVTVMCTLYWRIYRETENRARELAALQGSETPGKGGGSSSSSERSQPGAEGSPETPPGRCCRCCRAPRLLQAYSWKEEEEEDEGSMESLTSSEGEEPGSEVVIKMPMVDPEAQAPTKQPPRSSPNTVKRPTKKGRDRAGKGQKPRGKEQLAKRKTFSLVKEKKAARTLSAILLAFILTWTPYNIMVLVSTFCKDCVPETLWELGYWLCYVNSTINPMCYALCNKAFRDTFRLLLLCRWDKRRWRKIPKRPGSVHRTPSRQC
# [8] = target: MDR1a (P-gp, ABCB1) (Rattus norvegicus, UniProt P43245); assay: in vitro; conditions: not told
# Description: Efflux ratio assessed as rat MDR1a-mediated directional transport ratio from basolateral to apical over apical to basolateral by cell based assay
# [9] = target: MDR1 (P-gp, ABCB1) (Homo sapiens, UniProt P08183); assay: in vitro; conditions: not told
# Description: Efflux ratio assessed as human MDR1-mediated directional transport ratio from basolateral to apical over apical to basolateral by cell based assay
# [10] = target: Voltage-gated inwardly rectifying potassium channel KCNH2 (Homo sapiens, UniProt Q12809); assay: Binding affinity to human ERG
# [11] = Ratio of drug level in brain to plasma of Sprague-Dawley rat at 10 mg/kg, po after 2 hrs; format: ADME, organism-based; parameters: dose 10 mg/kg, route oral; conditions: read-out: BPR
# [12] = Drug concentration in Sprague-Dawley rat CSF at 10 mg/kg, po after 2 hrs; format: ADME, organism-based, Cerebrospinal fluid; parameters: dose 10 mg/kg, route oral; conditions: read-out: Drug uptake
# [13] = Drug concentration in Sprague-Dawley rat brain at 10 mg/kg, po after 2 hrs; format: ADME, organism-based; parameters: dose 10 mg/kg, route oral; conditions: read-out: Drug uptake
# [14] = Plasma concentration in Sprague-Dawley rat at 10 mg/kg, po after 2 hrs; format: ADME, organism-based; parameters: dose 10 mg/kg, route oral
# [15] = test system: Rattus norvegicus; assay: Ratio of drug level in CSF to unbound drug level in plasma of Sprague-Dawley rat at 10 mg/kg, po after 2 hrs; conditions: in vivo
# [16] = target: T3, Muscarinic acetylcholine receptor M1 (Homo sapiens); assay: Positive allosteric modulation of human muscarinic M1 receptor expressing in CHONFAT cells assessed as potentiation of acetylcholine-induced calcium mobilization at 34 uM preincubated for 4 mins and measured 4 mins after acetylcholine stimulation by FLIPR assay relative to untreated control; format: functional, cell-based
# [17] = test system: Plasma; assay: Plasma concentration in mouse scopolamine-induced memory deficit model at 10 mg/kg, ip; format: ADME, organism-based; parameters: dose 10 mg/kg, route intraperitoneal; conditions: in vivo
# [18] = test system: Mus musculus; assay: Inhibition of scopolamine-induced memory deficit in mouse pretreated with 10 to 30 mg/kg, ip after 24 hrs by contexual fear conditioning assay; format: functional, organism-based
# [19] = Fraction unbound in human plasma; format: ADME, cell-free
# [20] = Fraction unbound in rat plasma; format: ADME, cell-free
# [21] = species: Mus musculus; assay: Inhibition of scopolamine-induced memory deficit in mouse measured at plasma concentration of 1 uM after 24 hrs by contexual fear conditioning assay; format: functional, organism-based
# [22] = species: Mus musculus; assay: Inhibition of scopolamine-induced memory deficit in mouse measured at plasma concentration of 2.5 uM after 24 hrs by contexual fear conditioning assay; format: functional, organism-based
# Muscarinic acetylcholine receptor M3 (Homo sapiens), sequence (P20309 whole entry, looked up): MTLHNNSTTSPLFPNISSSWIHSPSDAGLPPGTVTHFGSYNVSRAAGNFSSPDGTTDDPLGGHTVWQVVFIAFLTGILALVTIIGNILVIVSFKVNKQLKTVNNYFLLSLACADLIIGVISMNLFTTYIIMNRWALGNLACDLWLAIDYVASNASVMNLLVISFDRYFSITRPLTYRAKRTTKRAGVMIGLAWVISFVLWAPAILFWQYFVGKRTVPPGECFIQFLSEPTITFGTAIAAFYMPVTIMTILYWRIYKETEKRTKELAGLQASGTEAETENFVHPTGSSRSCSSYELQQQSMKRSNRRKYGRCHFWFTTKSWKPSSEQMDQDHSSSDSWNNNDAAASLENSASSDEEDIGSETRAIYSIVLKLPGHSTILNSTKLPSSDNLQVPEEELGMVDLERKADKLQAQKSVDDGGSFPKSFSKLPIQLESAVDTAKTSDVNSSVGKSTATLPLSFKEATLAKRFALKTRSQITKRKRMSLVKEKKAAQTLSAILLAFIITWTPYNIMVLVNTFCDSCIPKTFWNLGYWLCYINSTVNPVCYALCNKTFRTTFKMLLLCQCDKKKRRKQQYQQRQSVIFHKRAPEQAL
# MDR1a (P-gp, ABCB1), sequence (P43245 whole entry): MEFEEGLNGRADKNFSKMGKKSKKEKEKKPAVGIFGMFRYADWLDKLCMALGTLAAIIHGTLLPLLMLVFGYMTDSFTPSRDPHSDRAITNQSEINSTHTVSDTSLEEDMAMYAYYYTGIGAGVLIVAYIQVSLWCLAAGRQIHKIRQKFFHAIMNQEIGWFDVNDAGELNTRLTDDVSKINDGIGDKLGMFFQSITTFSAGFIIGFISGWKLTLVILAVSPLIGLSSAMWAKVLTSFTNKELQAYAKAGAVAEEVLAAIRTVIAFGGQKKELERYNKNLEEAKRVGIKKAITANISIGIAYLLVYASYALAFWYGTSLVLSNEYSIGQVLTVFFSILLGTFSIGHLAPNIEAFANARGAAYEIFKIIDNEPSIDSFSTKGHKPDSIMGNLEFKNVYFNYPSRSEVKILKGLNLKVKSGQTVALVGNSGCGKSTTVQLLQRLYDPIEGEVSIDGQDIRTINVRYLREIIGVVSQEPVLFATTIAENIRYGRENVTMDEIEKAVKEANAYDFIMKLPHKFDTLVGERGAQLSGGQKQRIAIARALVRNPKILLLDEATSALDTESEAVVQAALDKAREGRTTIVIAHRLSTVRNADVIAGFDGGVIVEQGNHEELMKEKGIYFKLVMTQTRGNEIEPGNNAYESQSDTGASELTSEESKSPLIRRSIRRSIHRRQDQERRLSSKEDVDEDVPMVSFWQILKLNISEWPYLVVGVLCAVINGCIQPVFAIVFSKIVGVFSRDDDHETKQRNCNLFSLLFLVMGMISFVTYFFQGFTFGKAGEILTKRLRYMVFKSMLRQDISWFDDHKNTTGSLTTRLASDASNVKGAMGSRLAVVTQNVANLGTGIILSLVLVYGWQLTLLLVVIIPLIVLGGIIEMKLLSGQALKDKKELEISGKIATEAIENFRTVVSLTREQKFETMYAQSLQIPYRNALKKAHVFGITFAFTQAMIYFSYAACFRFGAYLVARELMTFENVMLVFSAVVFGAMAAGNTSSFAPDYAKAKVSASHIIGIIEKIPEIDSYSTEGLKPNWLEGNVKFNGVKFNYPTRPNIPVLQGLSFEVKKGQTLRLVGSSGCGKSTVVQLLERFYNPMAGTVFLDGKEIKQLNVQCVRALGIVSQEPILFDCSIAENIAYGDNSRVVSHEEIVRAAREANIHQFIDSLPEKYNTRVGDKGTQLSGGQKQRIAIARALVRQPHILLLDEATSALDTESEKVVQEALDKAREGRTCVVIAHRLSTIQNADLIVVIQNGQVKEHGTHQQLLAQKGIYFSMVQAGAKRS
# MDR1 (P-gp, ABCB1), sequence (P08183 whole entry): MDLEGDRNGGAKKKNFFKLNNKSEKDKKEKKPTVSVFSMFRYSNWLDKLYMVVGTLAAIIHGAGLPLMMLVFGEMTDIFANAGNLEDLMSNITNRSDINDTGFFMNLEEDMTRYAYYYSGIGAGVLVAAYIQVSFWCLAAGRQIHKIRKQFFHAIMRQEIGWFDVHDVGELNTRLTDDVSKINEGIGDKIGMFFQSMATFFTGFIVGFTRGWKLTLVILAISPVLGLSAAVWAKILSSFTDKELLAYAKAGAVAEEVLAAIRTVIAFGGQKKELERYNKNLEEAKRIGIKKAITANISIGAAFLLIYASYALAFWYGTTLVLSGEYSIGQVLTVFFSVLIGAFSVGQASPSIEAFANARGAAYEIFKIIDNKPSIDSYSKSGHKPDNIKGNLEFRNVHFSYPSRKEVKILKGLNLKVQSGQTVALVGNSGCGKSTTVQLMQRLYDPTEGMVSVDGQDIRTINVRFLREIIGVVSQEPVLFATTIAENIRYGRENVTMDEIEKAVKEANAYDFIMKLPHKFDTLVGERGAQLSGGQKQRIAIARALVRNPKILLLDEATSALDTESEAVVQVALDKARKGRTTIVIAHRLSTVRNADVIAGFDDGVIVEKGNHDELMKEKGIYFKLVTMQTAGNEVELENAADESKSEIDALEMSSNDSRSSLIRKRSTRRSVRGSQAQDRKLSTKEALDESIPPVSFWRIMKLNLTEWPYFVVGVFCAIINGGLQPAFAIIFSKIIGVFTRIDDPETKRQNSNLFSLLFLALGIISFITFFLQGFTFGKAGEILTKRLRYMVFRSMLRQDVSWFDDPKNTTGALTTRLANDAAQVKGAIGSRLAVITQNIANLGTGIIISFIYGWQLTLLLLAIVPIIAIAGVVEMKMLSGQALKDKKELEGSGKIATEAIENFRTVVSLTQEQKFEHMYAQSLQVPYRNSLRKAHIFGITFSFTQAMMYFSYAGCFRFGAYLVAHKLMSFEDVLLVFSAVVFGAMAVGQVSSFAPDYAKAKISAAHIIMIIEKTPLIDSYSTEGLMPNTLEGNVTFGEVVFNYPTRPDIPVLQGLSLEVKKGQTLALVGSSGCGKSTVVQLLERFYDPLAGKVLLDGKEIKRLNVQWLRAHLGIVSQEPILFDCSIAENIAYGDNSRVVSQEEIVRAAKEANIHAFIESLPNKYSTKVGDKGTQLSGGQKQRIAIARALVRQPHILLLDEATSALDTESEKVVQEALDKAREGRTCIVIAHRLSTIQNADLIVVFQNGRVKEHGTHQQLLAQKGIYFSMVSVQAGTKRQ
# Voltage-gated inwardly rectifying potassium channel KCNH2, sequence (Q12809 whole entry): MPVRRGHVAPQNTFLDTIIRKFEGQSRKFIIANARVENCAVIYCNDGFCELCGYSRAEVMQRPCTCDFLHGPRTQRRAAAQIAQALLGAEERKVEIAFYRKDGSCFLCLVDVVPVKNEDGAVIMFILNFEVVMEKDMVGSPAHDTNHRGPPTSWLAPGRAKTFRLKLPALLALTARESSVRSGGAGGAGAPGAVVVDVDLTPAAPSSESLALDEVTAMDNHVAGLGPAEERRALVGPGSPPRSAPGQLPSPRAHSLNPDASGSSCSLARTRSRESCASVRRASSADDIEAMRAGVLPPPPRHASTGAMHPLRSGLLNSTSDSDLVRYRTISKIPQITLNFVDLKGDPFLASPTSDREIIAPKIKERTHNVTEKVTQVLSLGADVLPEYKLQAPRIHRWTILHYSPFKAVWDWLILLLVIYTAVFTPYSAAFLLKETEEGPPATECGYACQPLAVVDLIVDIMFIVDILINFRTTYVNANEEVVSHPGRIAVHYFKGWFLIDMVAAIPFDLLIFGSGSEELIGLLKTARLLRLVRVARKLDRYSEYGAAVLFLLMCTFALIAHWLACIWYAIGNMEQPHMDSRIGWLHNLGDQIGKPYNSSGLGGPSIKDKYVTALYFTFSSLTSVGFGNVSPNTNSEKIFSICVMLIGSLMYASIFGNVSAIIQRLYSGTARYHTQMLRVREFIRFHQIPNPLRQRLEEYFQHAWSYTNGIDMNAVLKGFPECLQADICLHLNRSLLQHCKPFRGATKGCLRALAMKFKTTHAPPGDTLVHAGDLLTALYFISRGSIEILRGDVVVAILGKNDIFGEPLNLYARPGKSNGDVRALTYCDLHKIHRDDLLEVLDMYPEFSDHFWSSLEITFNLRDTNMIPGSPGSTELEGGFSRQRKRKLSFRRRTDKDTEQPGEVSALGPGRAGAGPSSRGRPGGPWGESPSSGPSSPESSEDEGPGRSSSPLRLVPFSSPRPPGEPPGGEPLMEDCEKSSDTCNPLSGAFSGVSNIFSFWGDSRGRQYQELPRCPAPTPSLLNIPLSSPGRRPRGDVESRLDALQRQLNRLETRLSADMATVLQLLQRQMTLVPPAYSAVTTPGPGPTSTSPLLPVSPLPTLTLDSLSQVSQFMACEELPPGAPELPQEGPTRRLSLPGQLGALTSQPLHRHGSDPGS
SMILES,fraction unbound [1],fraction unbound [2],Papp [3],Activity [4],Activity [5],Activity [6],IP [7],efflux ratio [8],efflux ratio [9],concentration at 2 h [14],also measured
N#CC1(c2ccccn2)CCN(Cc2cc(C(=O)NC3CCCCC3(F)F)c(=O)n3ccccc23)CC1 (stereo unspecified),0.04,0.105,29 ×10⁻⁶ cm/s,inactive,inactive,inactive,205 nM,3.4,1.7,,
N#Cc1ccc(N2CCN(Cc3cc(C(=O)N[C@H]4CCCC[C@@H]4O)c(=O)n4ccccc34)CC2)cc1,0.061,0.095,30 ×10⁻⁶ cm/s,inactive,inactive,inactive,244 nM,4.7,1.1,,pIC50 [10]: 6.41
C[C@@]1(NC(=O)c2cc(CN3CCC(C#N)(c4ccccn4)CC3)c3ccccn3c2=O)CCCC[C@H]1O,,,28 ×10⁻⁶ cm/s,inactive,inactive,inactive,> 20000 nM,12,10,,
Cc1ccc(N2CCN(Cc3cc(C(=O)N[C@H]4CCCC[C@@H]4O)c(=O)n4ccccc34)CC2)nc1,0.287,0.399,23 ×10⁻⁶ cm/s,inactive,inactive,inactive,174 nM,,,,
N#CC1(c2ccccc2)CCN(Cc2cc(C(=O)N[C@H]3CCCC[C@@H]3O)c(=O)n3ccccc23)CC1,0.031,0.148,32 ×10⁻⁶ cm/s,inactive,inactive,inactive,45 nM,3.3,2.3,1610 nM,Kp at 2 h [11]: 0.52; concentration at 2 h [12]: 29 nM; concentration at 2 h [13]: 896 nM; pIC50 [10]: 5.29; Ratio [15]: 0.58
N#CC1(c2ccccn2)CCN(Cc2cc(C(=O)NC3CCOCC3)c(=O)n3ccccc23)CC1,0.268,0.49,33 ×10⁻⁶ cm/s,inactive,inactive,inactive,338 nM,7.5,2.4,2650 nM,fold change (FC) [16]: 52; concentration [17]: 2400 nM; inhibition [18]: Active; Kp at 2 h [11]: 0.21; concentration at 2 h [12]: 215 nM; concentration at 2 h [13]: 559 nM; fraction unbound [19]: 0.49; fraction unbound [20]: 0.27; Ratio [15]: 0.3
N#CC1(c2ccccn2)CCN(Cc2cc(C(=O)N[C@H]3CCCC[C@@H]3F)c(=O)n3ccccc23)CC1,0.073,0.185,26 ×10⁻⁶ cm/s,inactive,inactive,inactive,147 nM,3.4,1.9,1120 nM,Kp at 2 h [11]: 0.28; concentration at 2 h [12]: 27 nM; concentration at 2 h [13]: 280 nM; Ratio [15]: 0.33
N#CC1(c2ccccn2)CCN(Cc2cc(C(=O)O)c(=O)n3ccccc23)CC1 [MSD-M1PAM],0.318,0.291,18 ×10⁻⁶ cm/s,,,,,1.4,0.5,1480 nM,inhibition [21]: Active; Ratio [15]: 0.3
O=C(N[C@H]1CCCC[C@@H]1O)c1cc(CN2CCN(c3cc4ccccc4cn3)CC2)c2ccccn2c1=O,0.032,0.087,29 ×10⁻⁶ cm/s,inactive,inactive,inactive,110 nM,,,,inhibition [22]: Active
O=C(N[C@H]1CCCC[C@@H]1O)c1cc(CN2CCN(c3cc4scnc4cn3)CC2)c2ccccn2c1=O,0.051,0.082,37 ×10⁻⁶ cm/s,inactive,inactive,inactive,22 nM,,,375 nM,Kp at 2 h [11]: 0.19; concentration at 2 h [12]: 4 nM; concentration at 2 h [13]: 77 nM
N#CC1(c2ccccn2)CCN(Cc2cc(C(=O)N[C@H]3CCCC[C@@H]3O)c(=O)n3ccccc23)CC1,0.14,0.48,29 ×10⁻⁶ cm/s,inactive,inactive,inactive,31 nM,,,,
N#CC1(c2ccccn2)CCN(Cc2cc(C(=O)NC3CCCCC3)c(=O)n3ccccc23)CC1,0.044,0.066,28 ×10⁻⁶ cm/s,inactive,inactive,inactive,253 nM,2,1.6,,
CS[C@H]1CCCC[C@@H]1NC(=O)c1cc(CN2CCC(C#N)(c3ccccn3)CC2)c2ccccn2c1=O,,,,inactive,inactive,inactive,177 nM,,,,
Cc1cccc2c1N(C(=O)c1cc(CN3CCC(C#N)(c4ccccn4)CC3)c3ccccn3c1=O)CCC2,,,,inactive,inactive,inactive,4400 nM,,,,
Cc1ccccc1NC(=O)c1cc(CN2CCC(C#N)(c3ccccn3)CC2)c2ccccn2c1=O,,,,inactive,inactive,inactive,2400 nM,,,,
